Results from publication PMC8788626 (Lung cancer (Amsterdam, Netherlands), 2017).
Values joined by “and” are separate entries in the source; they are usually repeats but may differ in a detail not shown here. Identical values can stand only once. One block for each molecule: values may come before it.

What was measured:
[1] = test system: patients with advanced NSCLC; settings: in vivo
EGFR-mutant lung cancers = settings: first line, subset with EGFR-mutant lung cancers; cited from earlier work
QT interval = assay: ECG analysis of QTc interval change from baseline; type: in vivo, patients
[2] = test system: T790M-negative, otherwise molecularly unselected advanced NSCLC; assay: Phase 2 study of intermittent pulse dacomitinib, efficacy, Cohort B; type: in vivo, patients; settings: 95% CI 1.0–3.3 months
[3] = test system: lung cancers harboring EGFR T790M; type: in vivo, patients; settings: Cohort A
[4] = continuous daily dosing; cited from earlier work
[5] = Plasma pharmacokinetics of dacomitinib and metabolite PF-05199265; type: in vivo, patients; settings: for Pre-dose (0 h) plasma concentration, mean (CV%) / Pre-dose (0 h) plasma concentration, median: Cycle 0, Day 4, 45 mg dacomitinib q12 h
EGFR-mutant lung cancer = settings: first-line therapy, standard daily dosing, ARCHER 1050; cited from earlier work
[6] = Cycle 0, Day 4, following 6 doses (q12 h) of 45 mg dacomitinib
[7] = Cycle 1, Day 1, following 3 day washout after 6 doses (q12 h) of 45 mg dacomitinib
[8] = Cycle 1, Day 4, following 5 doses (q12 h) of 60 mg dacomitinib

SMILES: COc1cc2ncnc(Nc3ccc(F)c(Cl)c3)c2cc1NC(=O)/C=C/CN1CCCCC1 [dacomitinib]
Grade 3 treatment-emergent lymphopenia ([1]; human): 13.2%
frequency of the most frequent treatment-related toxicities (diarrhea, rash, stomatitis, nausea, dry skin, paronychia, fatigue, decreased appetite) ([1]; human): > 20 % of patients
treatment-related serious adverse events: dehydration ([1]; human): 2
treatment-related serious adverse events: diarrhea ([1]; human): 2
treatment-related serious adverse events: nausea ([1]; human): 1
Grade 3 hypermagnesemia, patients [1]: three
number of treatment-related serious adverse events [1]: five
patients who discontinued study therapy due to a treatment-related adverse event [1]: No patients
patients with at least one treatment-related adverse event [1]: All patients
patients with treatment-related serious adverse events [1]: three
treatment-related cardiac adverse events [1]: no treatment-related cardiac adverse events
estimated median progression-free survival (EGFR-mutant lung cancers): 18.2 months
overall response rate (EGFR-mutant lung cancers): 76%
upper limits of the 95% CI for the mean change from baseline in QTc (QTcB, QTcF, QTcS) (QT interval; all Cycle 0 day 4 time points, 45 mg q12 h): < 10 ms
effect on cardiac repolarization (QT interval; at exposures comparable to steady state of 45 mg daily regimen): no effects on cardiac repolarization
median PFS [2]: 1.6 months
ORR (overall response rate) ([3]; 16 patients, 95% CI 0.2%–30.2%, p-value = 0.15): 6.3%
median PFS ([3]; 95% CI 1.4–4.4 months): 2.3 months
maximum tolerated dose [4]: 45 mg daily
Pre-dose (0 h) plasma concentration, mean (CV%) [5]: 76.4 ng/mL
Pre-dose (0 h) plasma concentration, median [5]: 68.4 ng/mL
Pre-dose (0 h) plasma concentration, mean (CV%) ([5]; listed as Dacomitinib): 76.4 (43) ng/mL
Cmin, mean (CV%) [5, 6]: 71.3 (39) ng/mL
Cmin, median [5, 6]: 65.6 ng/mL
Pre-dose plasma concentration, mean (CV%) [5, 7]: 32.1 (65) ng/mL
Pre-dose plasma concentration, median [5, 7]: 26.9 ng/mL
Pre-dose plasma concentration, mean (CV%) [5, 8]: 108.1 (39) ng/mL
Pre-dose plasma concentration, median [5, 8]: 100 ng/mL
Tmax ([5]; human, plasma, oral, 45 mg): 6.1 h
AUC(0-t) ([5]; human, plasma, oral, 45 mg, AUC0–10, mean (CV%), Cycle 0, Day 4, following 6 doses (q12 h) of 45 mg dacomitinib): 794 ng·h/mL
AUC(0-t) ([5]; human, plasma, oral, 45 mg, AUC0–10, median, Cycle 0, Day 4, following 6 doses (q12 h) of 45 mg dacomitinib): 728 ng·h/mL
Cmax ([5]; human, plasma, oral, 45 mg, mean (CV%), Cycle 0, Day 4, following 6 doses (q12 h) of 45 mg dacomitinib): 96.8 ng/mL
Cmax ([5]; human, plasma, oral, 45 mg, median, Cycle 0, Day 4, following 6 doses (q12 h) of 45 mg dacomitinib): 90.7 ng/mL
median progression-free survival (EGFR-mutant lung cancer): 14.7 months

Pre-dose (0 h) plasma concentration, mean (CV%) [5]: 7.1 ng/mL and 7.1 (161) ng/mL
Pre-dose (0 h) plasma concentration, median [5]: 4.6 ng/mL
AUC0–10, mean (CV%) [5, 6]: 75.0 (148) ng h/mL
AUC0–10, median [5, 6]: 50.8 ng·h/mL
Cmax, mean (CV%) [5, 6]: 8.5 (150) ng/mL
Cmax, median [5, 6]: 5.9 ng/mL
Cmin, mean (CV%) [5, 6]: 6.8 (157) ng/mL
Cmin, median [5, 6]: 4.5 ng/mL
Tmax, median (minimum–maximum) [5, 6]: 5.6 (0–11.0) hr
Pre-dose plasma concentration, mean (CV%) [5, 7]: 3.8 (83) ng/mL
Pre-dose plasma concentration, median [5, 7]: 2.8 ng/mL
Pre-dose plasma concentration, mean (CV%) [5, 8]: 9.0 (93) ng/mL
Pre-dose plasma concentration, median [5, 8]: 7.43 ng/mL
SMILES: O=C(/C=C/CN1CCCCC1)Nc1cc2c(Nc3ccc(F)c(Cl)c3)ncnc2cc1O [PF-05199265]
